This note sets out measurements from patent US20070224593A1 (priority 2005, published 2007).

In experiment [1] the target is non-amyloid or pre-amyloid PrP-d (Ovis aries, UniProt P23907). Type of experiment: binding. Conditions: such compounds were previously believed to associate only with classical amyloid PrP-d isoforms.
The target of experiment [2] is scrapie-form prion protein (PrP-d) (Ovis aries, UniProt P23907). Conditions: retropharyngeal lymph nodes of TSE+ sheep, ex vivo; 100 μM, 10 min, RT; λex approx. 370 nm, λem approx. 450 nm; TSE status confirmed by PrP-d immunohistochemistry.
Experiment [3] has as its target PrP-d (Ovis aries, UniProt P23907). Type of experiment: binding. Conditions: same section of unfixed lymphoid tissue from scrapie positive sheep.

Chain of non-amyloid or pre-amyloid PrP-d (P23907 25-233 limits assumed): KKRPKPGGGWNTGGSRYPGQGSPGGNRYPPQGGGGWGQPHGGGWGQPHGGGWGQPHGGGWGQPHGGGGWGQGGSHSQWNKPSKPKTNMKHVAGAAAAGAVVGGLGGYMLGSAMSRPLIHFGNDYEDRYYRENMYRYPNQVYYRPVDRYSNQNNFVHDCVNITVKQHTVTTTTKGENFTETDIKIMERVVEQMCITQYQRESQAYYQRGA
Chain of PrP-d (P23907 25-233 limits assumed): as above
Chain of scrapie-form prion protein (PrP-d) (P23907 25-233 limits assumed): as above

With “1,4-bis(4′-hydroxystyrl)-2-methoxybenzene [Me-X04]”, the “Binding to non-amyloid or pre-amyloid PrP-d” value in experiment [1] is “Binding”. Besides, in experiment [2], the “PrP-d detection and visualization by probe fluorescence” value is “detected and visualized”.
Turning to `O=C(O)c1cc(C=Cc2ccc(C=Cc3ccc(O)c(C(=O)O)c3)cc2)ccc1O` [X-34, 1,4-bis(3-carboxy-4-hydroxyphenylethenyl)-benzene], in experiment [3], the “Correlation of probe imaging with antibody binding (immunohistochemistry, AEC)” value was “colocalization of the X34 binding and the antibody binding”. The “Binding to non-amyloid or pre-amyloid PrP-d” value in experiment [1] was “Binding”.
